Source: article PMC5626944 (Frontiers in Pharmacology, 2017)

Tests used:
Dopamine, D1 (h) = assay: NovaScreen competition binding; set-up: species or system human; details: 1 µM
Neuropeptide, NPY2 (h) = test system: T1, Neuropeptide, NPY2 (h); assay: NovaScreen competition binding; set-up: species or system human; details: 1 µM
T1 construct: PerkinElmer – Caliper Life Sciences (NovaScreen service)

## C1=C(/c2cncnc2)CCCNCC/1 [TC299423, (E)-5-(pyrimidin-5-yl)-1,2,3,4,7,8-hexahydroazocine]
Dopamine, D1 (h)
  Hit: FALSE
Dopamine, D1 (h); [3H]-SCH23390
  Inhibition: -2.94%
Neuropeptide, NPY2 (h)
  Hit: FALSE
Neuropeptide, NPY2 (h); [125I]-PYY
  Inhibition: 2.16%
